According to ChEMBL document CHEMBL1833843, “Diarylpropanes and an arylpropyl quinone from Combretum griffithii” (J Nat Prod, 2011):
≈ marks a conversion by molar mass, not a printed value. Calls of active or inactive are those of the source. The rule behind the calls is not given here.

Assays:
Plasmodium falciparum [1] = assay: Antimalarial activity against multidrug-resistant Plasmodium falciparum K1 assessed as [3H]-hypoxanthine uptake after 24 hrs by scintillation counting
Plasmodium falciparum [2] = assay: Antimalarial activity against multidrug-resistant Plasmodium falciparum K1 assessed as [3H]-hypoxanthine uptake at 10 ug/mL after 24 hrs by scintillation counting; type: functional, organism-based
[3] = test system: Mycobacterium tuberculosis; assay: Antimycobacterial activity against Mycobacterium tuberculosis H37Ra by microplate alamar blue assay; type: functional
KB = assay: Cytotoxicity against human KB cells by sulforhodamine B assay; type: functional, cell-based
NCI-H187 = assay: Cytotoxicity against human NCI-H187 cells by sulforhodamine B assay; type: functional, cell-based
MCF7 = assay: Cytotoxicity against human MCF7 cells by sulforhodamine B assay; type: functional, cell-based

Row | SMILES | Activity (Plasmodium falciparum [2]) | IC50 (KB) [µg/mL] | other results
1 | C[C@H]1[C@@H](O)O[C@@H]2O[C@@]3(C)CC[C@H]4[C@H](C)CC[C@@H]1[C@@]24OO3 [ARTENIMOL] | – | – | IC50 (Plasmodium falciparum [1]): 0.001 µg/mL (≈ 0.00352 µM)
2 | COc1ccc(CCCc2ccc(O)c(OC)c2)c(O)c1 | inactive | 2.18 (≈ 7.56 µM) | MIC [3]: 3.13 µg/mL (≈ 10.9 µM)
3 | NNC(=O)c1ccncc1 [ISONIAZID] | – | – | MIC [3]: 0.23 µg/mL (≈ 1.68 µM)
4 | COC1=CC(=O)C(CCCc2ccc(O)c(OC)c2)=CC1=O [GRIFFITHANE D] | inactive | 1.42 (≈ 4.7 µM) | IC50 (NCI-H187): 1.08 µg/mL (≈ 3.57 µM); IC50 (MCF7): 6.75 µg/mL (≈ 22.3 µM)
5 | COc1cc(CCCc2cc(OC)c(O)cc2OC)ccc1O [GRIFFITHANE A] | inactive | 2.13 (≈ 6.69 µM) | –
6 | COc1cc(CCCc2ccc(OC)c(O)c2OC)ccc1O [GRIFFITHANE B] | inactive | 5.67 (≈ 17.8 µM) | –
7 | COc1cc(O)c(O)cc1CCCc1ccc(OC)c(OC)c1 | inactive | – | –
